According to publication PMC2954514 (Molecular cancer therapeutics, 2010):
“And” between values parts separate entries of the source, which are not always exact repeats. Equal entries are not always repeated. Where two headings read alike, the source gives them in different places.

Columns and labels:
[1] = test system: Bovine brain microtubule protein (MTP); test: Electron microscopy of polymers formed; assay type: biochemical
[2] = target: MAP-free bovine brain microtubules (Bos taurus, UniProt Q6B856); test: Microtubule dynamic instability at plus ends; assay type: biochemical; conditions: for Dynamicity, Percent Change (suppression of dynamic instability): 0.1 μmol/L (100 nmol/L) compound vs control; for Dynamicity, Percent Change (suppression of dynamic instability) / Catastrophe Frequency, Percent Change / Growing Lengths, Percent Change / Percent Time Shortening, Percent Change / Rescue Frequency, Percent Change / Shortening Lengths, Percent Change / Shortening Rates, Percent Change / Growing Rates, Percent Change / Percent Time Growing, Percent Change: (−) decrease; for Catastrophe Frequency / Dynamicity / Percent Time Attenuated / Percent Time Growing / Percent Time Shortening / Rescue Frequency / Growing Lengths / Shortening Lengths / Shortening Rates / Growing Rates: 0.1 μmol/L compound; for Percent Time Attenuated (pause), Percent Change / Catastrophe Frequency, Percent Change / Growing Lengths, Percent Change / Percent Time Shortening, Percent Change / Rescue Frequency, Percent Change / Shortening Lengths, Percent Change / Shortening Rates, Percent Change / Growing Rates, Percent Change / Percent Time Growing, Percent Change: 0.1 μmol/L compound vs control; for Percent Time Attenuated (pause), Percent Change / Growing Rates, Percent Change / Percent Time Growing, Percent Change: (+) increase; for Growing Lengths / Shortening Lengths / Shortening Rates / Growing Rates: mean ± SEM; for Growing Rates: plus ends, steady state
[3] = target: Bovine brain microtubule protein (MTP, tubulin and microtubule-associated proteins) (Bos taurus, UniProt Q6B856); test: Inhibition of microtubule polymerization; assay type: biochemical; conditions: for reduction of microtubule polymer mass: 100 nmol/L compound
[4] = target: soluble bovine brain tubulin (Bos taurus, UniProt Q6B856); test: Binding to soluble tubulin
rat brain tubulin = conditions: read-out: KD for tubulin reported previously; cited from earlier work
[5] = target: steady-state microtubules (MAP-rich); test: Binding of [3H]S-methyl DM1 to steady-state microtubules; parameters: species or system bovine
microtubules [6] = conditions: cited from earlier work
microtubules [7] = conditions: cited from earlier work; remark: listed apart in the source
metastatic breast cancer = conditions: Phase II, patients with metastatic breast cancer; cited from earlier work
[8] = 20 μmol/L compound (maytansine: 4 μmol/L and 20 μmol/L)

Sequence of soluble bovine brain tubulin (P81947 whole entry): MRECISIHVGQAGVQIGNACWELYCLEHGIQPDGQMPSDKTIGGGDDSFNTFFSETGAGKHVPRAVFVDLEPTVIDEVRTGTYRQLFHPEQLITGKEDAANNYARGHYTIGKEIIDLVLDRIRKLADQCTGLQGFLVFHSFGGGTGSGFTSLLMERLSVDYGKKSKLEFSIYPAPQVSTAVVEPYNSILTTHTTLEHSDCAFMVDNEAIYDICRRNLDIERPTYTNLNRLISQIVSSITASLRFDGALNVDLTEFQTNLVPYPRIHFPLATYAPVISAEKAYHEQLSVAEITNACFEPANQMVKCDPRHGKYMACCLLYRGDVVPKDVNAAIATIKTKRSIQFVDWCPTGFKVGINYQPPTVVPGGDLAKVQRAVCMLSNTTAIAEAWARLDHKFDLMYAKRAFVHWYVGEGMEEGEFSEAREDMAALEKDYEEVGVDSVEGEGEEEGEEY
Sequence of soluble bovine brain tubulin (Q6B856 whole entry): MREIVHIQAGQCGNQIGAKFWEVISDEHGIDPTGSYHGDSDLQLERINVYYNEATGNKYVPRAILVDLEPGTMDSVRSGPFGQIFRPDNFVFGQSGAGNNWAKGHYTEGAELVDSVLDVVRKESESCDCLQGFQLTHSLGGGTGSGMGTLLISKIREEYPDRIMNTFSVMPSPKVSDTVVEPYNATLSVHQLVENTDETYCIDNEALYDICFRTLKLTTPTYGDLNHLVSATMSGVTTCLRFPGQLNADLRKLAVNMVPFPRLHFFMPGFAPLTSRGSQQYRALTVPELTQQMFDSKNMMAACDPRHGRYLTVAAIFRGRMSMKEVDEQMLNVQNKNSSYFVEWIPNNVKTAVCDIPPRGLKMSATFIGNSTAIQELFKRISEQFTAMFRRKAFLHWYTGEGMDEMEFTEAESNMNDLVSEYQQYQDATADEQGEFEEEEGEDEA
Sequence of Bovine brain microtubule protein (MTP, tubulin and microtubule-associated proteins) (P81947 whole entry): as the sequence (P81947 whole entry) above
Sequence of Bovine brain microtubule protein (MTP, tubulin and microtubule-associated proteins) (Q6B856 whole entry): as the sequence (Q6B856 whole entry) above
Sequence of MAP-free bovine brain microtubules (Q6B856 whole entry): as above
Sequence of MAP-free bovine brain microtubules (P81947 whole entry partner): as the sequence (P81947 whole entry) above

COc1cc2cc(c1Cl)N(C)C(=O)C[C@H](OC(=O)[C@H](C)N(C)C(C)=O)[C@]1(C)O[C@H]1[C@H](C)[C@@H]1C[C@@](O)(NC(=O)O1)[C@H](OC)/C=C/C=C(\C)C2 [Maytansine, reference compound]
polymer morphology by electron microscopy ([1]; 2 μmol/L compound): very few microtubules and no aggregates | polymer morphology by electron microscopy [1, 8]: no microtubules or aggregates | Dynamicity, Percent Change (suppression of dynamic instability) [2]: 45 (−) % | Dynamicity, Percent Change (suppression of dynamic instability) ([2]; listed as maytansine): 45% | Catastrophe Frequency [2]: 0.21 per min | Dynamicity [2]: 0.72 | Percent Time Attenuated [2]: 65% | Percent Time Growing [2]: 24% | Percent Time Shortening [2]: 11% | Rescue Frequency [2]: 0.60 per min | Percent Time Attenuated (pause), Percent Change [2]: 5 (+) % | Percent Time Attenuated (pause), Percent Change ([2]; listed as maytansine): negligible effect | Catastrophe Frequency, Percent Change [2]: 30 (−) % | Growing Lengths, Percent Change [2]: 37 (−) % | Percent Time Shortening, Percent Change [2]: 26 (−) % | Rescue Frequency, Percent Change [2]: 40% and 40 (−) % | Shortening Lengths, Percent Change [2]: 40 (−) % | Shortening Rates, Percent Change [2]: 35% and 35 (−) % | Growing Rates, Percent Change [2]: 35% and 35 (−) % | Percent Time Growing, Percent Change [2]: 3.4 (+) % | Catastrophe Frequency, Percent Change ([2]; listed as maytansine): 30% | Shortening Lengths, Percent Change ([2]; listed as maytansine): 40% | Growing Lengths [2]: 1.2 ± 0.1 μm/event | Shortening Lengths [2]: 1.8 ± 0.9 μm/event | Shortening Rates [2]: 5.8 ± 0.5 μm/min | Growing Rates [2]: 1.1 ± 0.2 μm/min | inhibition at 0.1 µM ([3]; read-out: reduction of microtubule polymer mass): 20% | Kd [4]: 860 ± 200 nM | Kd (rat brain tubulin): 700 nM

COc1cc2cc(c1Cl)N(C)C(=O)C[C@H](OC(=O)[C@H](C)N(C)C(=O)CCSC)[C@]1(C)O[C@H]1[C@H](C)[C@@H]1C[C@@](O)(NC(=O)O1)[C@H](OC)/C=C/C=C(\C)C2 [S-methyl DM1, N^2'-deacetyl-N^2'-(3-thiomethyl-1-oxopropyl)-maytansine]
KD of low affinity sites, fold higher than high affinity sites [5]: 20 fold | binding to high affinity sites on microtubules, fold more strongly than vinblastine [5]: 20 fold and 19 fold | number of low affinity sites [5]: several hundred | molecules bound per microtubule ([5]; 0.1 μmol/L (100 nmol/L)): 19 ± 1 and 19 | mean length of the microtubules ([5]; 500 nmol/L – 4 μmol/L, standard deviation 4.5 μm): 13.9–14.1 μm | molecules bound per microtubule or sedimentable aggregate ([5]; 1 μmol/L): approximately 105 | molecules bound per microtubule or sedimentable aggregate ([5]; 4 μmol/L): 210 ± 37 and ~210 | number of high affinity sites per microtubule ([5]; Scatchard X-intercept): 37 | mean length of the microtubules ([5]; between 0 and 100 nmol/L, maximum standard deviation 4 μm): 14.4–14.5 μm | molecules bound to sedimentable polymer, per microtubule ([5]; concentrations ≥500 nmol/L): 60–210 | decrease of microtubule polymer mass ([5]; pre-assembled MAP-rich microtubules, 1 h, any concentration (0 – 4 μM)): less than 4% | Kd ([5]; read-out: KD, high affinity sites on microtubules, low drug concentrations (10 nmol/L – 100 nmol/L)): 100 ± 50 nM | Kd ([5]; read-out: KD, low affinity sites on microtubules and sedimentable aggregates, higher drug concentrations (0.1 μmol/L to 4 μmol/L)): 2200 ± 200 nM | concentrations inducing tubulin aggregates detectable by electron microscopy [1]: ≥ 2 µmol/L | polymer morphology by electron microscopy ([1]; 2 μmol/L compound): a small number of small aggregates along with the microtubules | polymer morphology by electron microscopy [1, 8]: an increase in aggregate formation | suppression of dynamicity (change) ([2]; 20 nmol/L, data not shown): ~ 6% | Dynamicity, Percent Change (suppression of dynamic instability) [2]: 84% and 84 (−) % | Catastrophe Frequency [2]: 0.03 per min | Dynamicity [2]: 0.21 | Percent Time Attenuated [2]: 87.4% | Percent Time Growing [2]: 7.3% | Percent Time Shortening [2]: 5.4% | Rescue Frequency [2]: 0.56 per min | Percent Time Attenuated (pause), Percent Change [2]: 41% and 41 (+) % | Catastrophe Frequency, Percent Change [2]: 90% and 90 (−) % | Growing Lengths, Percent Change [2]: 47 (−) % | Percent Time Shortening, Percent Change [2]: 64 (−) % | Rescue Frequency, Percent Change [2]: 44 (−) % | Shortening Lengths, Percent Change [2]: 60% and 60 (−) % | Shortening Rates, Percent Change [2]: 70% and 70 (−) % | Growing Rates, Percent Change [2]: 24 (−) % | Percent Time Growing, Percent Change [2]: 70 (−) % | Growing Lengths [2]: 1 ± 0.1 μm/event | Shortening Lengths [2]: 1.2 ± 0.2 μm/event | Shortening Rates [2]: 2.7 ± 0.9 μm/min | Growing Rates [2]: 1.3 ± 0.4 μm/min | reduction of microtubule polymer mass [3]: less than 3% | concentration showing nearly complete inhibition of microtubule polymerization ([3]; MTP 3 mg/mL, 30°C): 20 µmol/L | Kd ([4]; read-out: equilibrium dissociation constant (KD) for soluble tubulin, 3 μmol/L tubulin, PEM buffer, 45 min, 30°C): 930 nM and 900 nM

COc1cc2cc(c1Cl)N(C)C(=O)C[C@H](OC(=O)[C@H](C)N(C)C(=O)CCC(C)(C)SC)[C@]1(C)O[C@H]1[C@H](C)[C@@H]1C[C@@](O)(NC(=O)O1)[C@H](OC)/C=C/C=C(\C)C2 [S-methyl DM4, N^2'-deacetyl-N^2'-(4-thiomethyl-4-methyl-1-oxopentyl)-maytansine]
concentrations inducing tubulin aggregates detectable by electron microscopy [1]: ≥ 2 µmol/L | polymer morphology by electron microscopy ([1]; 2 μmol/L compound): aggregates as well as both normal and also some imperfect, ragged microtubules with loose protofilamentous structure | polymer morphology by electron microscopy [1, 8]: more extensive aggregation of tubulin occurred with no intact microtubules | Dynamicity, Percent Change (suppression of dynamic instability) [2]: 73% and 73 (−) % | Catastrophe Frequency [2]: 0.03 per min | Dynamicity [2]: 0.35 | Percent Time Attenuated [2]: 80.6% | Percent Time Growing [2]: 15.2% | Percent Time Shortening [2]: 4.2% | Rescue Frequency [2]: 0.50 per min | Percent Time Attenuated (pause), Percent Change [2]: 30% and 30 (+) % | Catastrophe Frequency, Percent Change [2]: 90% and 90 (−) % | Growing Lengths, Percent Change [2]: 16 (−) % | Percent Time Shortening, Percent Change [2]: 72 (−) % | Rescue Frequency, Percent Change [2]: 50 (−) % | Shortening Lengths, Percent Change [2]: 60% and 60 (−) % | Shortening Rates, Percent Change [2]: 56% and 56 (−) % | Growing Rates, Percent Change [2]: 24 (−) % | Percent Time Growing, Percent Change [2]: 34 (−) % | Growing Lengths [2]: 1.6 ± 0.1 μm/event | Shortening Lengths [2]: 1.2 ± 0.2 μm/event | Shortening Rates [2]: 3.9 ± 0.4 μm/min | Growing Rates [2]: 1.3 ± 0.3 μm/min | reduction of microtubule polymer mass [3]: less than 3% | plateau inhibition of polymerization ([3]; between 10 μmol/L and 20 μmol/L): 75% | plateau of sedimentable polymer, % of the control polymer mass ([3]; between 10 and 20 μmol/L): 25%

C=C1C[C@@H]2CC[C@@]34C[C@H]5O[C@H]6[C@@H](O3)[C@H]3O[C@H](CC[C@@H]3O[C@H]6[C@H]5O4)CC(=O)C[C@@H]3[C@@H](OC)[C@@H](C[C@H](O)CN)O[C@H]3C[C@H]3O[C@@H](CC[C@@H]1O2)C[C@@H](C)C3=C [eribulin]
high affinity binding sites per microtubule (microtubules [6]): 14.7 ±1.3

CC[C@]1(O)C[C@@H]2CN(CCc3c([nH]c4ccccc34)[C@@](C(=O)OC)(c3cc4c(cc3OC)N(C)[C@H]3[C@@](O)(C(=O)OC)[C@H](OC(C)=O)[C@]5(CC)C=CCN6CC[C@]43[C@@H]65)C2)C1 [vinblastine]
high affinity binding sites per microtubule (microtubules [6]): 16.8 ± 4.3 | suppression of catastrophe frequency (microtubules [7]; 100 nmol/L): ~ 30% | suppression of growth rate (microtubules [7]; 100 nmol/L): 34% | suppression of shortening rate (microtubules [7]; 100 nmol/L): 47% | enhancement of rescue frequency (microtubules [7]): ~ 200%

trastuzumab-DM1
interim overall response rate (metastatic breast cancer): 39%
